One may read the pIC50 as −log10 of the IC50, conventionally taken in molar units.

Experimental findings from PMC9034232 (RSC Advances, 2021) are described below.

The test system of data set [1] is influenza A/H1N1/WSN/33 virus. The data set can be described thus: Anti-IAV activity assay. It is filed as cell-based. Conditions: 24 h, read-out: IC50 (anti-IAV activity).
The next data set is described as follows: in vitro. Conditions: human.

pIC50: −log10 of the molar value. Where only a bound is given, the exact number is not on record here.

`Cc1cc(=O)c2c(o1)C[C@@H](O)C[C@H]2O` [Compound 11, (5R,7S)-5,7-dihydroxy-2-methyl-5,6,7,8-tetrahydro-4H-chromen-4-one]: in data set [1], the pIC50 was 5.05. In addition, the CC50 in “in vitro” is greater than 100 µM.

For the compound `Cc1cc(=O)c2c(o1)C[C@H](O)C[C@H]2O` [Compound 9, (5R,7R)-5,7-dihydroxy-2-methyl-5,6,7,8-tetrahydro-4H-chromen-4-one], in data set [1], the pIC50 was 4.79. Moreover, the CC50 in “in vitro” is greater than 100 µM.

As to `NC(=O)c1ncn([C@@H]2O[C@H](CO)[C@@H](O)[C@H]2O)n1` [Ribavirin, reference compound], in data set [1], the pIC50 was 4.66. The compound also came in with a CC50 in the data set “in vitro” greater than 100 µM.
